Laboratory results published in patent publication US20260232767A1, “INTERLEUKIN-23 RECEPTOR ANTAGONIST PEPTIDES FOR USE IN THE TREATMENT OF PSORIASIS” (Janssen Pharmaceutica NV, priority 2023, published 2026).

Test system: subjects with moderate-to-severe plaque psoriasis
Assay: Safety, adverse events, Example 2 through Week 56
Assay type: in vivo, human
Description: The LTE safety analysis was based on randomized participants in Example who entered the present long-term extension study and received at least one dose of study intervention (including a partial dose) during the study period.

[1] = Placebo → 100 mg QD after crossover, through Week 56
[2] = Placebo → 100 mg QD, Week 16 through Week 56
[3] = Placebo → 100 mg QD, LTE Safety analysis set

## CC(=O)NCCCC[C@@H]1NC(=O)[C@H](Cc2c[nH]c3c(C)cccc23)NC(=O)[C@H]([C@@H](C)O)NC(=O)[C@H](CC(N)=O)NC(=O)[C@@H](NC(C)=O)C(C)(C)SSC(C)(C)[C@@H](C(=O)N[C@@H](Cc2ccc(OCCN)cc2)C(=O)N[C@@H](Cc2ccc3ccccc3c2)C(=O)NC2(C(=O)N[C@@H](CCC(=O)O)C(=O)N[C@@H](CC(N)=O)C(=O)N[C@@H](Cc3cccnc3)C(=O)N(C)CC(N)=O)CCOCC2)NC1=O [IL-23 receptor antagonist peptide, Ac-[Pen]*-N-T-[W(7-Me)]-[Lys(Ac)]-[Pen]*-Phe[4-(2-aminoethoxy)]-[2-Nal]-[THP]-E-N-[3-Pal]-Sarc-NH2 (*[Pen]-[Pen]* formdisulfidebond)]
Combined, through Week 56
  Coronary artery disease: % of subjects: (0.4%)
  Coronary artery disease: number of subjects: 1
  Cough: % of subjects: (3.2%)
  Cough: number of subjects: 8
  Decreased appetite: % of subjects: (0.4%)
  Decreased appetite: number of subjects: 1
  Depression: % of subjects: (0.8%)
  Depression: number of subjects: 2
  Dermal cyst: % of subjects: (0.4%)
  Dermal cyst: number of subjects: 1
  Dermatitis acneiform: % of subjects: (0.4%)
  Dermatitis acneiform: number of subjects: 1
  Dermatitis contact: % of subjects: (1.6%)
  Dermatitis contact: number of subjects: 4
  Diabetes mellitus: % of subjects: (0.8%)
  Diabetes mellitus: number of subjects: 2
  Diffuse alopecia: % of subjects: (0.4%)
  Diffuse alopecia: number of subjects: 1
  Dysuria: % of subjects: (0.4%)
  Dysuria: number of subjects: 1
  Ear and labyrinth disorders: % of subjects: (1.2%)
  Ear and labyrinth disorders: number of subjects: 3
  Endocrine disorders: % of subjects: (0.4%)
  Endocrine disorders: number of subjects: 1
  Eye disorders: % of subjects: (1.2%)
  Eye disorders: number of subjects: 3
  Eyelid skin dryness: % of subjects: (0.4%)
  Eyelid skin dryness: number of subjects: 1
  Fatigue: % of subjects: (1.6%)
  Fatigue: number of subjects: 4
  General disorders and administration site conditions: % of subjects: (5.3%)
  General disorders and administration site conditions: number of subjects: 13
  Goiter: % of subjects: (0.4%)
  Goiter: number of subjects: 1
  Haemochromatosis: % of subjects: (0.4%)
  Haemochromatosis: number of subjects: 1
  Hand dermatitis: % of subjects: (0.4%)
  Hand dermatitis: number of subjects: 1
  Hematuria: % of subjects: (0.8%)
  Hematuria: number of subjects: 2
  Hepatobiliary disorders: % of subjects: (1.2%)
  Hepatobiliary disorders: number of subjects: 3
  Hypercholesterolemia: % of subjects: (0.4%)
  Hypercholesterolemia: number of subjects: 1
  Hyperglycemia: % of subjects: (1.6%)
  Hyperglycemia: number of subjects: 4
  Hyperlipidemia: % of subjects: (0.4%)
  Hyperlipidemia: number of subjects: 1
  Hypertension: % of subjects: (2.8%)
  Hypertension: number of subjects: 7
  Hypertransaminasemia: % of subjects: (0.4%)
  Hypertransaminasemia: number of subjects: 1
  Hypertriglyceridemia: % of subjects: (0.4%)
  Hypertriglyceridemia: number of subjects: 1
  Hypoacusis: % of subjects: (0.4%)
  Hypoacusis: number of subjects: 1
  Immune system disorders: % of subjects: (0.8%)
  Immune system disorders: number of subjects: 2
  Influenza like illness: % of subjects: (0.4%)
  Influenza like illness: number of subjects: 1
  Insomnia: % of subjects: (0.8%)
  Insomnia: number of subjects: 2
  Intertrigo: % of subjects: (0.4%)
  Intertrigo: number of subjects: 1
  Ketonuria: % of subjects: (0.4%)
  Ketonuria: number of subjects: 1
  Leukocyturia: % of subjects: (0.4%)
  Leukocyturia: number of subjects: 1
  Leukopenia: % of subjects: (0.4%)
  Leukopenia: number of subjects: 1
  Libido decreased: % of subjects: (0.4%)
  Libido decreased: number of subjects: 1
  Liver disorder: number of subjects: 0
  Lymphopenia: % of subjects: (0.8%)
  Lymphopenia: number of subjects: 2
  Menopause: % of subjects: (0.4%)
  Menopause: number of subjects: 1
  Metabolism and nutrition disorders: % of subjects: (4.5%)
  Metabolism and nutrition disorders: number of subjects: 11
  Neoplasms benign, malignant and unspecified (incl cysts and polyps): % of subjects: (2.4%)
  Neoplasms benign, malignant and unspecified (incl cysts and polyps): number of subjects: 6
  Nephrolithiasis: % of subjects: (0.4%)
  Nephrolithiasis: number of subjects: 1
  Neutropenia: % of subjects: (0.8%)
  Neutropenia: number of subjects: 2
  Night sweats: % of subjects: (0.4%)
  Night sweats: number of subjects: 1
  Non-cardiac chest pain: % of subjects: (0.4%)
  Non-cardiac chest pain: number of subjects: 1
  Ocular cyst: % of subjects: (0.4%)
  Ocular cyst: number of subjects: 1
  Oedema peripheral: % of subjects: (1.6%)
  Oedema peripheral: number of subjects: 4
  Oropharyngeal pain: % of subjects: (0.8%)
  Oropharyngeal pain: number of subjects: 2
  Procedural pain: % of subjects: (0.4%)
  Procedural pain: number of subjects: 1
  Productive cough: % of subjects: (0.4%)
  Productive cough: number of subjects: 1
  Proteinuria: % of subjects: (0.4%)
  Proteinuria: number of subjects: 1
  Pruritus: % of subjects: (0.8%)
  Pruritus: number of subjects: 2
  Psoriasis: % of subjects: (1.2%)
  Psoriasis: number of subjects: 3
  Psychiatric disorders: % of subjects: (2.0%)
  Psychiatric disorders: number of subjects: 5
  Pyrexia: % of subjects: (0.8%)
  Pyrexia: number of subjects: 2
  Rash pruritic: number of subjects: 0
  Renal and urinary disorders: % of subjects: (3.2%)
  Renal and urinary disorders: number of subjects: 8
  Renal mass: % of subjects: (0.4%)
  Renal mass: number of subjects: 1
  Respiratory, thoracic and mediastinal disorders: % of subjects: (5.3%)
  Respiratory, thoracic and mediastinal disorders: number of subjects: 13
  Retinal vein occlusion: % of subjects: (0.4%)
  Retinal vein occlusion: number of subjects: 1
  Rhinorrhoea: % of subjects: (0.4%)
  Rhinorrhoea: number of subjects: 1
  Seasonal allergy: % of subjects: (0.8%)
  Seasonal allergy: number of subjects: 2
  Skin and subcutaneous tissue disorders: % of subjects: (6.5%)
  Skin and subcutaneous tissue disorders: number of subjects: 16
  Skin laceration: % of subjects: (0.4%)
  Skin laceration: number of subjects: 1
  Skin papilloma: % of subjects: (0.8%)
  Skin papilloma: number of subjects: 2
  Social circumstances: % of subjects: (0.4%)
  Social circumstances: number of subjects: 1
  Steatohepatitis: % of subjects: (0.4%)
  Steatohepatitis: number of subjects: 1
  Suicide attempt: % of subjects: (0.4%)
  Suicide attempt: number of subjects: 1
  Sunburn: % of subjects: (0.4%)
  Sunburn: number of subjects: 1
  Thrombocytopenia: % of subjects: (0.4%)
  Thrombocytopenia: number of subjects: 1
  Thrombocytosis: % of subjects: (0.4%)
  Thrombocytosis: number of subjects: 1
  Tonsillar hypertrophy: % of subjects: (0.4%)
  Tonsillar hypertrophy: number of subjects: 1
  Tooth fracture: % of subjects: (0.4%)
  Tooth fracture: number of subjects: 1
  Type 2 diabetes mellitus: % of subjects: (0.4%)
  Type 2 diabetes mellitus: number of subjects: 1
  Urinary tract disorder: % of subjects: (0.4%)
  Urinary tract disorder: number of subjects: 1
  Uterine leiomyoma: % of subjects: (0.4%)
  Uterine leiomyoma: number of subjects: 1
  Vascular disorders: % of subjects: (2.8%)
  Vascular disorders: number of subjects: 7
  Ventricular dysfunction: % of subjects: (0.4%)
  Ventricular dysfunction: number of subjects: 1
  Vertigo: % of subjects: (0.8%)
  Vertigo: number of subjects: 2
  Vitamin D deficiency: % of subjects: (0.4%)
  Vitamin D deficiency: number of subjects: 1
LTE study period
  Deaths: no deaths
[1]
  Subjects with 1 or more treatment-emergent adverse events leading to discontinuation of study agent: 0
  Subjects with AE leading to discontinuation: Abdominal discomfort: 0
  Subjects with AE leading to discontinuation: Abdominal pain: 0
  Subjects with AE leading to discontinuation: Alanine aminotransferase increased: 0
  Subjects with AE leading to discontinuation: Aspartate aminotransferase increased: 0
  Subjects with AE leading to discontinuation: Asthenia: 0
  Subjects with AE leading to discontinuation: Chills: 0
  Subjects with AE leading to discontinuation: Ear and labyrinth disorders: 0
  Subjects with AE leading to discontinuation: Gamma-glutamyltransferase increased: 0
  Subjects with AE leading to discontinuation: Gastrointestinal disorders: 0
  Subjects with AE leading to discontinuation: General disorders and administration site conditions: 0
  Subjects with AE leading to discontinuation: Headache: 0
  Subjects with AE leading to discontinuation: Insomnia: 0
  Subjects with AE leading to discontinuation: Investigations: 0
  Subjects with AE leading to discontinuation: Nausea: 0
  Subjects with AE leading to discontinuation: Nervous system disorders: 0
  Subjects with AE leading to discontinuation: Proctalgia: 0
  Subjects with AE leading to discontinuation: Psoriasis: 0
  Subjects with AE leading to discontinuation: Psychiatric disorders: 0
  Subjects with AE leading to discontinuation: Skin and subcutaneous tissue disorders: 0
  Subjects with AE leading to discontinuation: Suicide attempt: 0
  Subjects with AE leading to discontinuation: Transaminases increased: 0
  Subjects with AE leading to discontinuation: Vertigo: 0
  Subjects with AE leading to discontinuation: Vomiting: 0
  Subjects with AE leading to discontinuation: Weight increased: 0
  Subjects with treatment-emergent AE: Cough: 0
  Subjects with treatment-emergent AE: Headache: 0
  Subjects with treatment-emergent AE: Nasopharyngitis: 9
  Subjects with treatment-emergent serious AE: COVID-19: 0
  Subjects with treatment-emergent serious AE: Cardiac disorders: 0
  Subjects with treatment-emergent serious AE: Coronary artery disease: 0
  Subjects with treatment-emergent serious AE: Diverticulitis: 0
  Subjects with treatment-emergent serious AE: Foot deformity: 0
  Subjects with treatment-emergent serious AE: General disorders and administration site conditions: 0
  Subjects with treatment-emergent serious AE: Infected cyst: 0
  Subjects with treatment-emergent serious AE: Infections and infestations: 0
  Subjects with treatment-emergent serious AE: Injury, poisoning and procedural complications: 0
  Subjects with treatment-emergent serious AE: Intervertebral disc protrusion: 0
  Subjects with treatment-emergent serious AE: Ligament injury: 0
  Subjects with treatment-emergent serious AE: Musculoskeletal and connective tissue disorders: 0
  Subjects with treatment-emergent serious AE: Neoplasms benign, malignant and unspecified (incl cysts and polyps): 0
  Subjects with treatment-emergent serious AE: Non-cardiac chest pain: 0
  Subjects with treatment-emergent serious AE: Psychiatric disorders: 0
  Subjects with treatment-emergent serious AE: Respiratory, thoracic and mediastinal disorders: 0
  Subjects with treatment-emergent serious AE: Suicide attempt: 0
  Subjects with treatment-emergent serious AE: Tonsillar hypertrophy: 0
  Subjects with treatment-emergent serious AE: Uterine leiomyoma: 0
  Subjects with treatment-emergent serious AE: Ventricular dysfunction: 0
[2]
  Number of subjects with treatment-emergent AE: Cholelithiasis: 0
  Number of subjects with treatment-emergent AE: Ear and labyrinth disorders: 0
  Number of subjects with treatment-emergent AE: Endocrine disorders: 0
  Number of subjects with treatment-emergent AE: Eye disorders: 2
  Number of subjects with treatment-emergent AE: Eyelid skin dryness: 0
  Number of subjects with treatment-emergent AE: Goiter: 0
  Number of subjects with treatment-emergent AE: Hepatobiliary disorders: 1
  Number of subjects with treatment-emergent AE: Hypertransaminasemia: 1
  Number of subjects with treatment-emergent AE: Immune system disorders: 0
  Number of subjects with treatment-emergent AE: Insomnia: 0
  Number of subjects with treatment-emergent AE: Ocular cyst: 1
  Number of subjects with treatment-emergent AE: Psychiatric disorders: 0
  Number of subjects with treatment-emergent AE: Retinal vein occlusion: 1
  Number of subjects with treatment-emergent AE: Seasonal allergy: 0
  Number of subjects with treatment-emergent AE: Vertigo: 0
  Subjects with treatment-emergent AE: Eye disorders (%): (5.7%)
  Subjects with treatment-emergent AE: Hepatobiliary disorders (%): (2.9%)
  Subjects with treatment-emergent AE: Hypertransaminasemia (%): (2.9%)
  Subjects with treatment-emergent AE: Ocular cyst (%): (2.9%)
  Subjects with treatment-emergent AE: Retinal vein occlusion (%): (2.9%)
[3]
  Subjects who discontinued study agent because of 1 or more adverse events: 0
  Subjects with 1 or more Serious Infections and infestations: 0
  Subjects with adverse event: Headache: 0
  Subjects with adverse event: Meniscus injury: 0
  Subjects with adverse event: Nasopharyngitis: 9
  Subjects with adverse event: Sinusitis: 0
  Subjects with adverse event: Vomiting: 0
  Subjects with serious adverse event: Coronary artery disease: 0
  Subjects with serious adverse event: Diverticulitis: 0
  Subjects with serious adverse event: Foot deformity: 0
  Subjects with serious adverse event: Intervertebral disc protrusion: 0
  Subjects with serious adverse event: Ligament injury: 0
  Subjects with serious adverse event: Non-cardiac chest pain: 0
  Subjects with serious adverse event: Tonsillar hypertrophy: 0
  Subjects with serious adverse event: Uterine leiomyoma: 0
